Values of other authors in patent US20240416337A1, “Quantitation of chemical, biological and biochemical analytes on a flow assay using a smartphone” (Real-Time Analyzers, Inc., priority 2023, published 2024).

Legend:
[1] = in vivo
[2] = blood compared with saliva

ionization at physiological pH: does not ionize | passage through salivary glands into the oral cavity [1]: readily passes through salivary glands | tacrolimus concentration in the blood [2]: modestly higher than in saliva
Structure (SMILES): C=CC[C@@H]1/C=C(\C)C[C@H](C)C[C@H](OC)[C@H]2O[C@@](O)(C(=O)C(=O)N3CCCC[C@H]3C(=O)O[C@H](/C(C)=C/[C@@H]3CC[C@@H](O)[C@H](OC)C3)[C@H](C)[C@@H](O)CC1=O)[C@H](C)C[C@@H]2OC [tacrolimus]
